# Experimental data from BindingDB's records for doi:10.1021/jm060521i (Karo Bio, 2006).
# Target: T1, Thyroid hormone receptor alpha (Homo sapiens, UniProt P10827)
# T1 sequence (P10827 whole entry): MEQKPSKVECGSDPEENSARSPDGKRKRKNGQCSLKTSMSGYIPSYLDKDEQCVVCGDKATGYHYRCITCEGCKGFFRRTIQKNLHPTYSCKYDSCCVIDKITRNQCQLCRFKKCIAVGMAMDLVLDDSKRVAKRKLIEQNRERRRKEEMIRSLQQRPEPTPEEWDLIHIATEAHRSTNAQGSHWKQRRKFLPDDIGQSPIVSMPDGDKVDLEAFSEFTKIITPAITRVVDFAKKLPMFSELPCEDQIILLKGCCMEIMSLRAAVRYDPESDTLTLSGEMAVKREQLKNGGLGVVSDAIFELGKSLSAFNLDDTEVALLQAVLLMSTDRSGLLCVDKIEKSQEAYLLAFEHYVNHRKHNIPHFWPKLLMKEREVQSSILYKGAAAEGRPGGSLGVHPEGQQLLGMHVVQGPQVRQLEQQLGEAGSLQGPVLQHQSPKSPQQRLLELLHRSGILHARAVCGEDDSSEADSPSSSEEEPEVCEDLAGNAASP
# Experiment: TRalpha-Binding Assay and Thyroid Response Element (TRAFalpha1) Reporter Assay.
# Conditions: pH 7; 4 °C
# Description: EC50 is the concentration of compound required to inhibit 50% of T3-induced TRalpha-activation in CHOK1 cells stably transfected with hTRalpha using alkaline phosphatase reporter assay.
structure (smiles),measurement,value
"CC(C)c1cc(Oc2c(Br)cc(CCC(=O)O)cc2Br)cc(/C=C/c2ccncc2)c1O [3-{3,5-dibromo-4-[4-hydroxy-3-(propan-2-yl)-5-[(E)-2-(pyridin-4-yl)ethenyl]phenoxy]phenyl}propanoic acid]",EC50,32 nM
